# System: patients with advanced solid tumors
# Assay: First-in-human phase 1 dose-escalation study: safety, DLTs, adverse events
# Assay type: in vivo
# Source text: This multicenter first-in-human dose-escalation phase 1 study (clinicaltrials.gov identifier: NCT03272256) was designed to determine the MTD or RP2D and to evaluate the safety and tolerability of IM156. Secondary endpoints included PK characteristics, efficacy assessment (objective response rate [ORR], disease control rate [DCR], duration of response [DoR] and progression-free survival [PFS]). Furthermore, exploratory objectives included identification and profiling of IM156 metabolites, evaluations of exploratory PD markers of IM156, and evaluations of any potential relationship between putative biomarkers and safety/efficacy parameters of IM156. The study was conducted in accordance with Good Clinical Practice, the International Council for Harmonisation, and guidelines governing clinical study conduct and the ethical principles originating from the Declaration of Helsinki. The study was approved by each Institutional Review Board and patients provided written informed consent. Patients were enrolled at three sites in South Korea.
# The initial dose and schedule of IM156 was chosen based on animal toxicology studies. […] IM156 was administered in the fasted state, with no food for at least 2 h before and 1 h after dosing.
# Three DLT-evaluable patients were enrolled at each dose level. If there were no DLTs or other prohibitive adverse events (AEs), the Safety Committee was allowed to recommend escalation to the next highest dose level. If 1 DLT occurred in the first 3 DLT-evaluable patients, enrollment in that cohort was expanded to an additional 3 DLT-evaluable patients; if ≥ 2 DLTs were reported in a cohort, that dose was considered above the MTD.
# Safety was assessed through vital signs, weight, laboratory assessments, physical examinations, electrocardiogram, and reporting of AEs as graded by the National Cancer Institute’s Common Terminology Criteria for Adverse Events v4.03 (NCI-CTCAE).
# DLTs were defined as the following AEs if they were attributed as related to IM156: asymptomatic grade 4 neutropenia lasting for ≥ 5 days; febrile neutropenia, regardless of grade; grade 4 thrombocytopenia or grade 3 thrombocytopenia with bleeding; any grade ≥ 3 non-hematologic AE (except grade 3 hypertension and grade 3 nausea, vomiting or diarrhea for which proper measures for prevention and treatment were not implemented, and alopecia); blood lactate levels > 5 mmol; grade ≥ 2 AE prohibiting dosing of IM156 for ≥ 21 continuous days except for alterations in serum calcium or phosphorus levels. The safety analysis includes all patients who received at least one dose of study drug.
# The safety population was defined as all patients who received at least one dose of IM156. The PK population was not defined in the protocol but included all patients with sufficient PK data to perform adequate PK modeling. The efficacy population included all patients who underwent at least one tumor imaging assessment while receiving IM156. Safety was assessed using descriptive statistics (e.g., DLTs, AEs, laboratory tests, physical examination, 12-lead ECG). The incidence and number of events were reported for the DLTs observed in Cycle 1 per dose group. […] Adverse events and TRAEs were standardized with the System Organ Class and the Preferred Term using the Medical Dictionary for Regulatory Activities v23.0. In addition, TEAEs, serious adverse events (SAEs), TEAE severity, and TEAEs leading to withdrawal were presented by dose group. Efficacy data were to be presented by Waterfall and Swim Lane plots. Time to event endpoints (e.g., DoR, PFS) were determined using Kaplan–Meier estimations with the median value for each endpoint summarized.
# [1] = DL5 1200 mg orally every other day (n=3)
structure (smiles),measurement,setting,value
NC(=Nc1ccc(OC(F)(F)F)cc1)N=C(N)N1CCCC1 [IM156],TEAE Dry skin grade 1,[1],0
same,TEAE Dry skin grade 2,[1],0
same,TEAE Dry skin grade 3,[1],0
same,TEAE Dry skin grade 4,[1],0
same,TEAE Flank pain grade 1,[1],0
same,TEAE Flank pain grade 2,[1],0
same,TEAE Flank pain grade 3,[1],0
same,TEAE Flank pain grade 4,[1],0
same,TEAE Hypertension grade 1,[1],0
same,TEAE Hypertension grade 2,[1],0
same,TEAE Hypertension grade 3,[1],0
same,TEAE Hypertension grade 4,[1],0
same,TEAE Hypotension grade 1,[1],0
same,TEAE Hypotension grade 2,[1],1
same,TEAE Hypotension grade 3,[1],0
same,TEAE Hypotension grade 4,[1],0
same,TEAE Insomnia grade 1,[1],0
same,TEAE Insomnia grade 2,[1],0
same,TEAE Insomnia grade 3,[1],0
same,TEAE Insomnia grade 4,[1],0
same,TEAE Pain in extremity grade 1,[1],0
same,TEAE Pain in extremity grade 2,[1],0
same,TEAE Pain in extremity grade 3,[1],0
same,TEAE Pain in extremity grade 4,[1],0
same,TEAE Pruritus grade 1,[1],0
same,TEAE Pruritus grade 2,[1],0
same,TEAE Pruritus grade 3,[1],0
same,TEAE Pruritus grade 4,[1],0
same,TEAE Psychiatric disorders grade 1,[1],0
same,TEAE Psychiatric disorders grade 2,[1],0
same,TEAE Psychiatric disorders grade 3,[1],0
same,TEAE Psychiatric disorders grade 4,[1],0
same,TEAE Purpura grade 1,[1],0
same,TEAE Purpura grade 2,[1],0
same,TEAE Purpura grade 3,[1],0
same,TEAE Purpura grade 4,[1],0
same,TEAE Urinary retention grade 1,[1],0
same,TEAE Urinary retention grade 2,[1],0
same,TEAE Urinary retention grade 3,[1],0
same,TEAE Urinary retention grade 4,[1],0
same,TEAE Urinary tract disorder grade 1,[1],0
same,TEAE Urinary tract disorder grade 2,[1],0
same,TEAE Urinary tract disorder grade 3,[1],0
same,TEAE Urinary tract disorder grade 4,[1],0
same,"TEAE Abdominal discomfort, grade 1",DL6 800 mg QD (n=3),1
same,"TEAE Alanine aminotransferase increased, grade 1",DL6 800 mg QD (n=3),1
same,"TEAE Aspartate aminotransferase increased, grade 1",DL6 800 mg QD (n=3),1
same,"TEAE Blood lactic acid increased, grade 1",DL6 800 mg QD (n=3),1
same,"TEAE Constipation, grade 1",DL6 800 mg QD (n=3),2
same,"TEAE Decreased appetite, grade 1",DL6 800 mg QD (n=3),1
same,"TEAE Diarrhoea, grade 1",DL6 800 mg QD (n=3),3
same,"TEAE Fatigue, grade 1",DL6 800 mg QD (n=3),1
same,"TEAE Gastrointestinal pain, grade 1",DL6 800 mg QD (n=3),1
same,"TEAE Nausea, grade 1",DL6 800 mg QD (n=3),2
same,"TEAE Toothache, grade 1",DL6 800 mg QD (n=3),1
same,"TEAE Vomiting, grade 1",DL6 800 mg QD (n=3),1
same,"TRAE Abdominal Pain, > G3 (patients)","DL6 800 mg QD, N = 3",0
same,"TRAE Abdominal Pain, All grades (patients)","DL6 800 mg QD, N = 3",0
same,"TRAE Blood Lactic Acid increased, > G3 (patients)","DL6 800 mg QD, N = 3",0
same,"TRAE Blood Lactic Acid increased, All grades (patients)","DL6 800 mg QD, N = 3",1
same,"TRAE Constipation, > G3 (patients)","DL6 800 mg QD, N = 3",0
same,"TRAE Constipation, All grades (patients)","DL6 800 mg QD, N = 3",1
same,"TRAE Decreased appetite, > G3 (patients)","DL6 800 mg QD, N = 3",0
same,"TRAE Decreased appetite, All grades (patients)","DL6 800 mg QD, N = 3",0
same,"TRAE Diarrhoea, > G3 (patients)","DL6 800 mg QD, N = 3",0
same,"TRAE Diarrhoea, All grades (patients)","DL6 800 mg QD, N = 3",3
same,"TRAE Fatigue, > G3 (patients)","DL6 800 mg QD, N = 3",0
same,"TRAE Fatigue, All grades (patients)","DL6 800 mg QD, N = 3",0
same,"TRAE Insomnia, > G3 (patients)","DL6 800 mg QD, N = 3",0
same,"TRAE Insomnia, All grades (patients)","DL6 800 mg QD, N = 3",0
same,"TRAE Nausea, > G3 (patients)","DL6 800 mg QD, N = 3",0
same,"TRAE Nausea, All grades (patients)","DL6 800 mg QD, N = 3",2
same,"TRAE Vomiting, > G3 (patients)","DL6 800 mg QD, N = 3",0
same,"TRAE Vomiting, All grades (patients)","DL6 800 mg QD, N = 3",1
same,TEAE Adrenal insufficiency grade 1,DL6 800 mg orally daily (n=3),0
same,TEAE Adrenal insufficiency grade 2,DL6 800 mg orally daily (n=3),0
same,TEAE Adrenal insufficiency grade 3,DL6 800 mg orally daily (n=3),0
same,TEAE Adrenal insufficiency grade 4,DL6 800 mg orally daily (n=3),0
same,TEAE Anaemia grade 1,DL6 800 mg orally daily (n=3),0
same,TEAE Anaemia grade 2,DL6 800 mg orally daily (n=3),0
same,TEAE Anaemia grade 3,DL6 800 mg orally daily (n=3),0
same,TEAE Anaemia grade 4,DL6 800 mg orally daily (n=3),0
same,TEAE Appendicitis perforated grade 1,DL6 800 mg orally daily (n=3),0
same,TEAE Appendicitis perforated grade 2,DL6 800 mg orally daily (n=3),0
same,TEAE Appendicitis perforated grade 3,DL6 800 mg orally daily (n=3),0
same,TEAE Appendicitis perforated grade 4,DL6 800 mg orally daily (n=3),0
same,TEAE Back pain grade 1,DL6 800 mg orally daily (n=3),0
same,TEAE Back pain grade 2,DL6 800 mg orally daily (n=3),0
same,TEAE Back pain grade 3,DL6 800 mg orally daily (n=3),0
same,TEAE Back pain grade 4,DL6 800 mg orally daily (n=3),0
same,TEAE Cystitis grade 1,DL6 800 mg orally daily (n=3),0
same,TEAE Cystitis grade 2,DL6 800 mg orally daily (n=3),0
same,TEAE Cystitis grade 3,DL6 800 mg orally daily (n=3),0
same,TEAE Cystitis grade 4,DL6 800 mg orally daily (n=3),0
same,TEAE Dry skin grade 1,DL6 800 mg orally daily (n=3),0
same,TEAE Dry skin grade 2,DL6 800 mg orally daily (n=3),0
same,TEAE Dry skin grade 3,DL6 800 mg orally daily (n=3),0
same,TEAE Dry skin grade 4,DL6 800 mg orally daily (n=3),0
same,TEAE Flank pain grade 1,DL6 800 mg orally daily (n=3),0
same,TEAE Flank pain grade 2,DL6 800 mg orally daily (n=3),0
same,TEAE Flank pain grade 3,DL6 800 mg orally daily (n=3),0
same,TEAE Flank pain grade 4,DL6 800 mg orally daily (n=3),0
same,TEAE Hypertension grade 1,DL6 800 mg orally daily (n=3),0
same,TEAE Hypertension grade 2,DL6 800 mg orally daily (n=3),0
same,TEAE Hypertension grade 3,DL6 800 mg orally daily (n=3),0
same,TEAE Hypertension grade 4,DL6 800 mg orally daily (n=3),0
same,TEAE Hypotension grade 1,DL6 800 mg orally daily (n=3),0
same,TEAE Hypotension grade 2,DL6 800 mg orally daily (n=3),0
same,TEAE Hypotension grade 3,DL6 800 mg orally daily (n=3),0
same,TEAE Hypotension grade 4,DL6 800 mg orally daily (n=3),0
same,TEAE Insomnia grade 1,DL6 800 mg orally daily (n=3),1
same,TEAE Insomnia grade 2,DL6 800 mg orally daily (n=3),0
same,TEAE Insomnia grade 3,DL6 800 mg orally daily (n=3),0
same,TEAE Insomnia grade 4,DL6 800 mg orally daily (n=3),0
same,TEAE Pain in extremity grade 1,DL6 800 mg orally daily (n=3),0
same,TEAE Pain in extremity grade 2,DL6 800 mg orally daily (n=3),0
same,TEAE Pain in extremity grade 3,DL6 800 mg orally daily (n=3),0

# Source: paper PMC9395488, “First-in-human study of IM156, a novel potent biguanide oxidative phosphorylation (OXPHOS) inhibitor, in patients with advanced solid tumors” (Investigational New Drugs, 2022)
